Data from patent US20190002480A1, “Silane-Containing Heterocyclic Compounds and Methods of Use Thereof for the Treatment of Viral Diseases” (Merck Sharp & Dohme Corp., priority 2015, published 2019).
Like-named read-outs stand apart in the source and are kept apart here.

Assays:
HCV replicon GT5 = test: Cell-based HCV replicon assay, GT5; conditions: Hepatitis C virus, GT5, 72 h; replicon RNA level by real-time PCR, 3 days
Method: (§1) To measure cell-based anti-HCV activity of compounds of the present invention, two complimentary assays were employed using various replicons. In the first assay (“Replicon Assay A”), replicon cells were seeded at 2000 cells/well in 384-well 384-well flat bottom tissue culture treated clear bottom plate (Corning 3707) in the presence of the test compound. Various concentrations of test compound, typically in 10 serial dilutions, were added to the assay mixture, with the starting concentration ranging from 333.3 nM to […]. The final concentration of DMSO was 0.5%. Fetal bovine serum was 5%, in the assay media. Cells were harvested on day 3 by removing media and washing the cells with a suitable wash buffer. The cells are lysed with the addition of 1× Qiagen lysis buffer (Cat #1062731). The replicon RNA level was measured using real time PCR (TaqMan® EZ RT-PCR, Applied Biosystems 403028) with the following primers and probes: […]
(§2) Cyclophilin RNA was used as endogenous control and was amplified in the same reaction as NS5B (multiplex PCR). The real-time RT-PCR reactions were run on ABI PRISM 7900HT Sequence Detection System using the following program: 50° C. for 2 minutes, 60° C. for 30 minutes, 95° C. for 5 minutes, 40 cycles of 94 C for 20 sec, 55 C for 1 minutes.
(§3) The amount of HCV replicon RNA per cell is quantified using a linear regression curve for a known nanogram (ng) amount of HCV replicon total RNA. This is established by plotting the Cycle Threshold values (Ct) from the Neo probe and primer set versus the log (ng) for each HCV replicon total RNA standard. The amount of HCV RNA for each replicon sample is calculated by taking the sample's Ct value, minus the line intercept, divided by the slope of the line. Similarly, the amount of Cyclophilin mRNA per cell is also quantified using a linear regression curve for a known nanogram (ng) amount of HCV replicon total RNA. Again, this is established by plotting the Cycle Threshold values (Ct) from the Cyclophilin probe and primer set versus the log (ng) for each HCV replicon total RNA standard.
(§4) In an alternate assay (“Replicon Assay B”), 1000 cells were seeded per well in a 384-well collagen coated black plate from Greiner bio-one (Cat #781946) in 5% FBS. Inhibitors of this invention were added at 24 h post-seeding, and the plates were incubated for 3 days. Cells were subsequently lysed with Qiagen lysis buffer (Cat #1062731) to extract the RNA. HCV replicon RNA level was measured by real-time PCR using the RNA-to-CT kit from Applied Biosystem (Cat #4392656) and genotype-specific primers and probes. The amplicon was located within NS5B. The sequence of the PCR primers are as follows: 5B.2F, ATGGACAGGCGCCCTGA (SEQ. ID NO. 1); 5B.2R, […] (SEQ. ID NO. 2); the probe sequence was FAM-labeled CACGCCATGCGCTGCGG (SEQ. ID NO. 3). To detect genotype 1A the primer 1A F, TGCGGAACCGGTGAGTACA and 1A R, […] were used; the probe sequence was FAM-[…].
(§5) The real-time RT-PCR reactions were run on ABI PRISM 7900HT or Viia7 Sequence Detection System using the following program: 48° C. for 30 minutes, 95 C for 10 minutes, 40 cycles of 95 C for 15 sec, 60 C for 1 minutes. The 50% effective concentration (EC50) was the drug concentration necessary to achieve an increase in the cycle threshold (CT) of 1 over the projected baseline CT. The EC90 was the drug concentration necessary to achieve an increase in CT of 3.2 over the projected baseline CT.

HCV replicon GT2a = test: Cell-based HCV replicon assay, GT2a; conditions: Hepatitis C virus, 72 h, read-out: GT2a EC90
Method: as §1, §2, §3, §4, §5

HCV replicon GT6 = test: Cell-based HCV replicon assay, GT6; conditions: Hepatitis C virus, GT6, 72 h; replicon RNA level by real-time PCR, 3 days
Method: as §1, §2, §3, §4, §5

HCV replicon GT1a_L31V = test: Cell-based HCV replicon assay, GT1a L31V; conditions: Hepatitis C virus, 72 h, read-out: GT1a_L31V EC90
Method: as §1, §2, §3, §4, §5

HCV replicon GT3a_Y93H = test: Cell-based HCV replicon assay, GT3a Y93H; conditions: Hepatitis C virus, 72 h, read-out: GT3a_Y93H EC90
Method: as §1, §2, §3, §4, §5

HCV replicon GT1a_Y93H = test: Cell-based HCV replicon assay, GT1a Y93H; conditions: Hepatitis C virus, 72 h, read-out: GT1a_Y93H EC90
Method: as §1, §2, §3, §4, §5

HCV replicon GT1a_Q30R = test: Cell-based HCV replicon assay, GT1a Q30R; conditions: Hepatitis C virus, 72 h, read-out: GT1a_Q30R EC90
Method: as §1, §2, §3, §4, §5

HCV replicon GT3a_WT = test: Cell-based HCV replicon assay, GT3a WT; conditions: Hepatitis C virus, 72 h; replicon RNA level by real-time PCR, 3 days
Method: as §1, §2, §3, §4, §5

HCV replicon GT2b_31M = test: Cell-based HCV replicon assay, GT2b 31M; conditions: Hepatitis C virus, 72 h, read-out: GT2b_31M EC90
Method: as §1, §2, §3, §4, §5

HCV replicon GT1b_WT = test: Cell-based HCV replicon assay, GT1b WT; conditions: Hepatitis C virus, 72 h, read-out: GT1b_WT EC90
Method: as §1, §2, §3, §4, §5

HCV replicon GT4 = test: Cell-based HCV replicon assay, GT4; conditions: Hepatitis C virus, GT4, 72 h; replicon RNA level by real-time PCR, 3 days
Method: as §1, §2, §3, §4, §5

[1] = replicon RNA level by real-time PCR, 3 days

Compound	EC90 (HCV replicon GT5) [pM]	EC90 (HCV replicon GT2a) [pM]	EC90 (HCV replicon GT6) [pM]	EC90 (HCV replicon GT1a_L31V) [pM]	EC90 (HCV replicon GT3a_Y93H) [pM]	EC90 (HCV replicon GT1a_Y93H) [pM]	EC90 (HCV replicon GT1a_Q30R) [pM]	EC90 (HCV replicon GT3a_WT) [pM]	EC90 (HCV replicon GT2b_31M) [pM]	EC90 (HCV replicon GT1b_WT) [pM]	EC90 (HCV replicon GT4) [pM]	EC90 (HCV replicon GT1b_WT; [1]) [pM]	EC90 (HCV replicon GT2a; [1]) [pM]
COC(=O)N[C@H](C(=O)N1CCC[C@H]1c1ncc(-c2cc(F)c3c(c2)O[C@@H](c2cnc(C4CC4)s2)n2c-3cc3cc(-c4cnc([C@@H]5C[Si](C)(C)CN5C(=O)[C@@H](NC(=O)OC)C(C)C)[nH]4)ccc32)[nH]1)C(C)C [Compound 1]	5.6	2.78	5.9	56.8	393000	231	19.3	1770	2430	–	–	–	–
COC(=O)NC(C(=O)N1C[Si](C)(C)C[C@H]1c1ncc(-c2ccc3c(c2)cc2n3[C@H](c3cnc(C4CC4)s3)Oc3cc(-c4cnc([C@@H]5CCCN5C(=O)[C@@H](NC(=O)OC)C(C)C)[nH]4)cc(F)c3-2)[nH]1)C1CCOCC1 (some centres unmarked) [Compound 2]	4.1	–	4.4	3	168000	62	4.3	170	231	–	–	–	–
COC(=O)N[C@H](C(=O)N1CCC[C@H]1c1ncc(-c2cc(F)c3c(c2)O[C@@H](c2cnc(C4CC4)s2)n2c-3cc3cc(-c4cnc([C@@H]5C[Si](C)(C)CN5C(=O)[C@@H](NC(=O)OC)[C@@H]5CCOC(C)(C)C5)[nH]4)ccc32)[nH]1)C(C)C [Compound 3]	7.3	1.67	7.6	9.7	370000	79	8	285	431	1	1.12	–	–
CNC(C(=O)N1C[Si](C)(C)C[C@H]1c1ncc(-c2ccc3c(c2)cc2n3[C@H](c3cnc(C4CC4)s3)Oc3cc(-c4cnc([C@@H]5CCCN5C(=O)[C@@H](NC(=O)OC)C(C)C)[nH]4)cc(F)c3-2)[nH]1)c1ccccc1 (some centres unmarked) [Compound 5]	8.6	–	8.8	35.9	110000	330	15.5	257	378	–	–	2.1	–
COC(=O)N[C@H](C(=O)N1CCC[C@H]1c1ncc(-c2ccc3c(c2)cc2n3[C@H](c3cnc(C4CC4)s3)Oc3cc(-c4cnc([C@@H]5C[Si](C)(C)CN5C(=O)[C@@H](NC(=O)OC)C(C)C)[nH]4)cc(F)c3-2)[nH]1)C(C)C [Compound 6]	6.9	3.39	5.7	59.9	118000	199	72.9	1320	3040	1.16	1.35	–	–
COC(=O)NC(C(=O)N1CCC[C@H]1c1ncc(-c2ccc3c(c2)cc2n3[C@H](c3cnc(C4CC4)s3)Oc3cc(-c4cnc([C@@H]5C[Si](C)(C)CN5C(=O)[C@@H](NC(=O)OC)C5CCCCC5)[nH]4)cc(F)c3-2)[nH]1)C(C)C (some centres unmarked) [Compound 7]	24.6	1.77	90.6	4.5	82000	22	3.9	51	132	2.44	1.47	–	–
COC(=O)NC(C(=O)N1CCC[C@H]1c1ncc(-c2ccc3c(c2)cc2n3[C@H](c3cnc(C4CC4)s3)Oc3cc(-c4cnc([C@@H]5C[Si](C)(C)CN5C(=O)[C@@H](NC(=O)OC)[C@@H]5CCOC(C)(C)C5)[nH]4)cc(F)c3-2)[nH]1)C(C)C (some centres unmarked) [Compound 8]	7.2	1.18	7.9	8.8	133000	271	5.6	709	1120	–	1.03	–	–
COC(=O)NC(C(=O)N1CCC[C@H]1c1ncc(-c2ccc3c(c2)cc2n3[C@H](c3cnc(C4CC4)s3)Oc3cc(-c4cnc([C@@H]5C[Si](C)(C)CN5C(=O)[C@H](N)c5ccccc5)[nH]4)cc(F)c3-2)[nH]1)C(C)C (some centres unmarked) [Compound 10]	13.9	–	8	859	126000	4280	387	5480	12000	–	–	1.42	2.46
CN[C@@H](C(=O)N1C[Si](C)(C)C[C@H]1c1ncc(-c2cc(F)c3c(c2)O[C@@H](c2cnc(C4CC4)s2)n2c-3cc3cc(-c4cnc([C@@H]5CCCN5C(=O)C(NC(=O)OC)C(C)C)[nH]4)ccc32)[nH]1)c1ccccc1 (some centres unmarked) [Compound 11]	9.8	–	6.6	96.3	74000	933	31.8	347	705	–	–	1.54	1
COC(=O)N[C@H](C(=O)N1CCC[C@H]1c1ncc(-c2cc(F)c3c(c2)O[C@@H](c2cnc(C4CC4)s2)n2c-3cc3cc(-c4cnc([C@@H]5C[Si](C)(C)CN5C(=O)C(N)c5ccccc5)[nH]4)ccc32)[nH]1)C(C)C (some centres unmarked) [Compound 12]	14.4	–	86.3	149	155000	334	77.6	36	61	–	–	1.41	1.52
COC(=O)N[C@H](C(=O)N1CCC[C@H]1c1ncc(-c2cc(F)c3c(c2)O[C@@H](c2ccc(C4CC4)s2)n2c-3cc3cc(-c4cnc([C@@H]5C[Si](C)(C)CN5C(=O)[C@@H](N)c5ccccc5)[nH]4)ccc32)[nH]1)C(C)C [Compound 18]	6.8	–	8.4	68.1	206000	1220	37.2	27	62	–	–	1.11	–
CNC(C(=O)N1C[Si](C)(C)C[C@H]1c1ncc(-c2ccc3c(c2)cc2n3[C@H](c3ccc(C4CC4)s3)Oc3cc(-c4cnc([C@@H]5CCCN5C(=O)[C@@H](NC(=O)OC)C(C)C)[nH]4)cc(F)c3-2)[nH]1)c1ccccc1 (some centres unmarked) [Compound 19]	4.8	–	4.7	10.6	109000	219	5.3	56	92	–	–	–	–
